Results from patent US12410152B2, “Oxazole and thioazole-type cullin ring ubiquitin ligase compounds and uses thereof” (Proxygen GmbH, priority 2019, dated 2025).

Columns and labels:
KBM7-Cas9 cells = assay: CRISPR/Cas9 resistance screens (genome-wide Brunello and CRL-focused sgRNA libraries); format: cell-based, human; settings: two weeks continuous drug treatment, start 4xEC50
Experimental: 293T cells seeded on 15 cm culture plates 16h before were transfected with 5 μg Brunello pooled library (Addgene #73178; 2-vector system), 2.5 μg pMD2.G (Addgene #12259), and 3.75 μg psPAX2 (Addgene #12260) using PolyFect (Qiagen) according to the manufacturer's protocol. Viral supernatant was harvested 72h after transfection and concentrated using Lenti—X-concentrator (Takara), according to the manufacturer's protocol. Concentrated viral supernatant was stored in aliquots at −80° C. and titrated to achieve a MOI of 0.2-0.3.
250 million KBM7-Cas9 cells were transduced at MOI 0.23, yielding a calculated library representation of 668 cells/sgRNA (library representation=50 million cells). For transduction, 20 μL of concentrated viral supernatant was added to 5 million cells in 1.5 mL IMDM and 8 μg/mL polybrene in 6-well plates. Plates were centrifuged at 2000 rpm for 1 h at 30° C. in a benchtop centrifuge, 0.5 mL IMDM were added and then incubated at 37° C. overnight. The next day, transduced cells were pooled and diluted. Pools were selected with 1 μg/mL puromycin for 5 days. Three independent resistance screens were performed with the library using drugs at starting concentrations of 4×EC50. Selective drug treatment was performed on 50 million cells/drug at a seeding density of 500,000 cells/mL. Every 5 days, cells were pooled, counted and re-seeded to 50 million cells in 100 mL, applying fresh drug. […]
De-multiplexed raw reads were processed to count sgRNA spacer abundance using a custom script. The first 20 bp of the trimmed reads were collected and aligned against the Brunello spacer index using Bowtie2. Spacers were counted using cut-f 3|sort|uniq -c on the aligned SAM files. […] Log 2 fold changes of drug treatment vs DMSO were calculated from normalized counts, omitting spacers with no reads in the DMSO condition. The enrichment rank of each spacer sequence was expressed as a fraction of the total number of spacers, so that the most enriched spacer is assigned a perturbation strength of 1, in accordance with the STARS algorithm. […]

[1] = test system: KBM7 WT and UBE2Mmut cells; assay: Primary phenotypic screen, differential viability KBM7 WT vs UBE2M mutant; format: cell-based, human; settings: 10 μM and 500 nM, 3 days
Experimental: Following this observation, it was rationalized that novel small molecule degraders can be identified in an unbiased manner, simply by searching for compounds that lose activity in the absence of UBE2M. 2000 small molecules, mostly of unknown function/target, were tested for their antiproliferative effects in human leukemia cells (KBM7). These cells were either transduced with a control sgRNA (KBM7WT), or with an sgRNA targeting UBE2M, leading to a hypomorph (deletion of six amino acids) with a functional impairment (UBE2Mmut).
KBM7^WT and UBE2M^mut cells were treated with a compound library (2000 cytotoxic diverse small-molecules, mostly of unknown function/target). Briefly, the screening was divided in three parts 1) primary screening, 2) follow up and 3) validation. During the primary screening, cells were treated with 10 μM and 500 nM of every compound. […] After 3 days of treatment, cell viability was measured (CellTiter Glo, Promega). The screen was perform in 384-well plates (Corning 3712) and the reagent/compound dispensing system used was: Echo 520 Liquid Handler, Multidrop™ Combi Reagent Dispenser. Control compounds were included in several wells, in all the plates. Method for validation of IC021313.2, IC020822.1, IC020772.1, T6938051 as described above in (i).

Cc1ccc(C(=O)N2CSCC2C(=O)N=c2[nH]cc(C)s2)o1 (stereo not drawn) [Compound T6938051]
gene enrichment in drug-tolerant populations (genome-wide CRISPR screen) (KBM7-Cas9 cells): striking enrichment in only four genes | hit in differential viability screen [1]: stood out in terms of fold-change significance

O=C(CSc1nnc2c(n1)[nH]c1ccccc12)Nc1ccc(Cl)cn1 [IC020772.1]
gene enrichment in drug-tolerant populations (genome-wide CRISPR screen) (KBM7-Cas9 cells): striking enrichment in only four genes | hit in differential viability screen [1]: stood out in terms of fold-change significance

O=C(CSc1nc2ccccc2[nH]1)Nc1ccc(Cl)cn1 [IC021313.2]
gene enrichment in drug-tolerant populations (genome-wide CRISPR screen) (KBM7-Cas9 cells): striking enrichment in only four genes | hit in differential viability screen [1]: stood out in terms of fold-change significance
